Columns and labels:
Assay type in all cases: cell-based
[1] = system: ARPE-19 cells; assay: Protection of lipophenols against all-trans-retinal toxicity (anti-carbonyl stress activity, MTT); settings: trans-retinal 15 μM; for cell survival gain (anti-carbonyl stress activity): compared to stressed untreated cells; for anti-carbonyl stress activity (in words): up to 80 μM lipophenol
Method: (§1) ARPE-19 cells (cells from the retinal pigment epithelium) were obtained from ATCC, and were grown following the instructions in Dulbecco's Modified Eagle's Medium (DMEM)/Ham F12 (GIBCO) containing 10% v/v fetal bovine serum (FBS) and 1% v/v penicillin/streptomycin under a humidified air (95%)/CO2 (5%) atmosphere at 37° C. For experimental cell seeding and sub-culturing, cells were dissociated with 0.25% trypsin-EDTA, re-suspended in the culture medium and then plated at 1-3×10^5 cells/mL.
(§2) Cell viability was determined by MTT colorimetric assay. Cells were incubated for 2 h with MTT reagent (0.5 mg/mL). During this incubation time, dehydrogenases of living cells reduced MTT to insoluble purple formazan, which was then dissolved in DMSO. The absorbance at 570 nm and 655 nm of individual wells was measured using a microplate reader (BioRad 550). The percentage of viable cells was calculated as [(OD570 sample−OD655 sample)/(OD570 control−OD655 control)]×100%.
ARPE-19 cells were plated into 96-well plates (4×10^4 cells/well) and cultured for 24 h to reach confluence before lipophenol treatment. The cell cultures were treated with serum free medium containing lipophenols at different concentrations (0-80 μM) for 1 h. Then all-trans-retinal was added to a final concentration of 15 μM for 4 h, before rinsing with medium. Control cells were incubated with DMSO (0.2%)±all-trans-retinal. The cell viability was determined 16-20 h later using a MTT colorimetric assay. All samples are expressed as percentage of viability compared to non-treated and exposed to all-trans-retinal control cells. Non-treated and non-exposed to all-trans-retinal control cells are normalized at 100% survival.
The results on the measurement of anti-carbonyl stress activity will be discussed in % cell survival gain compared to cells stressed by trans-retinal (at 15 μM) and not treated with lipophenols. Any survival gain greater than +5% will be considered as a proven anti-carbonyl stress activity.

[2] = system: ARPE-19 cells; assay: Protection of lipophenols against ROS production (DCFDA probe, H2O2); settings: H2O2 600 μM; for increase in ROS compared to non-stressed cells: from 20 μM lipophenol
Method: as §1
Reactive oxygen species (ROS) were measured in ARPE-19 cells with the probe DCFDA. The cell permeant reagent DCFDA is deacetylated by cellular esterases to […], which can be oxidized by ROS into the fluorophore 2′,7′-dichlorofluorescein (DCF). ARPE-19 cells were plated into black, opaque bottom 96-well plates (4×10^4 cells/well) and cultured for 24 h to reach confluence before drug treatment. The cell cultures were incubated with 2 μM of DCFDA for 45 min in DMEM/F12 medium without phenol red+1% FBS. The cells were rinsed and incubated with medium containing lipophenols at different concentrations (0-80 μM) for 1 h. Then H2O2 was added to a final concentration of 600 μM for 4 h, followed by the measurement of DCF production by fluorescence spectroscopy with excitation wavelength at 485 nm and emission wavelength at 535 nm. Control cells were incubated with DMSO (0.2%)±DCFDA±H2O2. All samples are expressed as percentage of ROS production compared to non-oxidized control cells (normalized at 100% of ROS production).
The lowest percentages of increase will therefore be representative of the most protective derivatives.

[3] = system: ARPE-19 cells; assay: Protection of lipophenols against photoactivated A2E toxicity (MTT); settings: A2E 20 μM, blue light
Method: as §1, §2
ARPE-19 cells were plated into 96-well plates (4×10^4 cells/well) and cultured for 24 h to reach confluence before lipophenol treatment. The cell cultures were treated with serum free DMEM/F12 medium without phenol red containing lipophenols at different concentrations (0-80 μM) for 1 h. Then A2E was added to a final concentration of 20 μM for 6 h, before rinsing with medium. Control cells were incubated with DMSO (0.2%)+A2E. Cells were exposed to intense blue light (4600 LUX) for 30 min to induce phototoxicity of A2E and incubated at 37° C. The cell viability was determined 16-20 h later using a MTT colorimetric assay. All samples are expressed as percentage of viability compared to non-treated and exposed to A2E control cells. Non-treated and non-exposed to A2E control cells are normalized at 100% survival.
Photoactivation of A2E leads to its oxidation and can generate cytotoxic derivatives, in particular carbonyl derivatives responsible for carbonyl stress. Results on lipophenol protection against photoactivated A2E toxicity will be discussed in % cell survival gain compared to cells stressed by A2E and not treated by lipophenols. This additional evaluation was not performed for all synthesized lipophenolic derivatives but only a selection of them to discuss the results obtained.

[4] = system: ARPE-19 cells; assay: Cytotoxicity of lipophenols on ARPE-19 cells (MTT); settings: 24 h; for toxicity (in words): concentrations up to 160 μM; for cell survival: compared to untreated cells (100%)
Method: as §2
(§3) ARPE-19 cells were plated into 96-well plates (4×10^4 cells/well) and cultured for 24 h to reach confluence before lipophenol treatment. […] Control cells were incubated with DMSO (0.2%). The viability of the cells was determined using a MTT colorimetric assay. All samples are expressed as percentage of viability compared to non-treated control cells (normalized at 100% survival).
(§4) Results on the measurement of lipophenol toxicity will be discussed in % cell survival at a given lipophenol concentration compared to untreated cells. […] Any concentration of lipophenol resulting in cell survival of less than 5% (zero survival) will be considered a highly toxic concentration.

[5] = Cytotoxicity of lipophenols on ARPE-19 cells (MTT); settings: human, ARPE-19 cells (retinal pigment epithelium), tested 0-160 μM, read-out: CC50 (cytotoxic concentration 50)
Method: as §2, §3, §4

Molecule: CCCCC/C=C\C/C=C\CCCCCCCC(=O)O[C@H]1Cc2c(OC(C)C)cc(O)cc2O[C@@H]1c1ccc(O)c(O)c1 [C-3LA-5OiP, (9Z,12Z)-(2R,3S)-2-(3,4-dihydroxyphenyl)-7-hydroxy-5-isopropoxy-chroman-3-yl octadeca-9,12-dienoate]
- cell survival gain (anti-carbonyl stress activity) ([1]; 80 μM lipophenol): +9%
- gain of % of ROS production compared to non-stressed cells ([2]; 80 μM lipophenol): +67%
- cell survival gain against photoactivated A2E ([3]; concentration not given): +30%

Molecule: (+)-catechin [reference compound]
- anti-carbonyl stress activity (in words) [1]: no anti-carbonyl stress activity
- increase in ROS compared to non-stressed cells [2]: 0%

Molecule: CC(C)Oc1cc(O)c2c(=O)c(O)c(-c3ccc(O)c(O)c3)oc2c1 [Q-70iP, reference compound]
- concentration from which cell survival is zero (highly toxic concentration) [4]: 40 µM
- toxicity (in words) [4]: very important cytotoxicity even at low concentration
- anti-carbonyl stress activity (in words) [1]: did not show anti-carbonyl stress potency
- gain of % of ROS production compared to non-stressed cells ([2]; 20 μM lipophenol): +31%

Molecule: CC(C)Oc1cc(O)cc2oc(-c3ccc(O)c(O)c3)c(O)c(=O)c12 [Q-50iP, reference compound]
- cell survival ([4]; 160 μM lipophenol): 72%
- toxicity (in words) [4]: almost no toxicity
- anti-carbonyl stress activity (in words) [1]: did not show anti-carbonyl stress potency
- gain of % of ROS production compared to non-stressed cells ([2]; 80 μM lipophenol): +46%

Molecule: CC(C)Oc1cc(O)c2c(c1)O[C@H](c1ccc(O)c(O)c1)[C@@H](O)C2 [C-70iP, reference compound]
- toxicity (in words) [4]: no toxicity
- anti-carbonyl stress activity (in words) [1]: no anti-carbonyl stress activity
- increase in ROS compared to non-stressed cells [2]: 0%

Molecule: CC/C=C\C/C=C\C/C=C\CCCCCCCC(=O)Oc1c(-c2ccc(O)c(O)c2)oc2cc(OC(C)C)cc(O)c2c1=O [Q-3ALA-7OiP, (9Z,12Z,15Z)-5-hydroxy-2-(3,4-dihydroxyphenyl)-7-isopropoxy-4-oxo-4H-chromen-3-yl octadeca-9,12,15-trienoate]
- toxicity (in words) [4]: no toxicity
- cell survival gain (anti-carbonyl stress activity) ([1]; 80 μM lipophenol): +29%
- cell survival gain against photoactivated A2E ([3]; 80 μM lipophenol, compared to stressed untreated cells): +77%

Molecule: CC/C=C\C/C=C\C/C=C\CCCCCCCC(=O)Oc1c(-c2ccc(O)c(O)c2)oc2cc(O)cc(OC(C)C)c2c1=O [Q-3ALA-5OiP, (9Z,12Z,15Z)-7-hydroxy-2-(3,4-dihydroxyphenyl)-5-isopropoxy-4-oxo-4H-chromen-3-yl octadeca-9,12,15-trienoate]
- concentration from which cytotoxicity is induced [4]: 60 µM
- cell survival gain (anti-carbonyl stress activity) ([1]; 40 μM lipophenol): +24%

Molecule: CCCCC/C=C\C/C=C\CCCCCCCC(=O)O[C@H]1Cc2c(O)cc(OC(C)C)cc2O[C@@H]1c1ccc(O)c(O)c1 [C-3LA-7OiP, (9Z,12Z)-(2R,3S)-2-(3,4-dihydroxyphenyl)-5-hydroxy-7-isopropoxy-chroman-3-yl octadeca-9,12-dienoate]
- concentration from which cell survival is zero (highly toxic concentration) [4]: 80 µM
- cell survival gain (anti-carbonyl stress activity) ([1]; 40 μM lipophenol): +27%
- gain of % of ROS production compared to non-stressed cells ([2]; 80 μM lipophenol): +37%

Molecule: CC(C)Oc1cc(O)cc2c1C[C@H](O)[C@@H](c1ccc(O)c(O)c1)O2 [C-50iP, reference compound]
- toxicity (in words) [4]: no toxicity
- anti-carbonyl stress activity (in words) [1]: no anti-carbonyl stress activity
- increase in ROS compared to non-stressed cells [2]: 0%

Molecule: CC/C=C\C/C=C\C/C=C\C/C=C\C/C=C\C/C=C\CCC(=O)Oc1c(-c2ccc(O)c(O)c2)oc2cc(O)cc(OC(C)C)c2c1=O [Q-3DHA-5OiP, (4Z,7Z,10Z,13Z,16Z,19Z)-7-hydroxy-2-(3,4-dihydroxyphenyl)-5-isopropoxy-4-oxo-4H-chromen-3-yl docosa-4,7,10,13,16,19-hexaenoate]
- CC50 at 24 h [5]: > 40 µM
- concentration from which cytotoxicity is induced [4]: 60 µM
- cell survival gain (anti-carbonyl stress activity) ([1]; 40 μM lipophenol): +27%

Molecule: CC/C=C\C/C=C\C/C=C\C/C=C\C/C=C\C/C=C\CCC(=O)Oc1c(-c2ccc(O)c(O)c2)oc2cc(O)cc(O)c2c1=O [Q-3DHA, (4Z,7Z,10Z,13Z,16Z,19Z)-2-(3,4-dihydroxyphenyl)-5,7-dihydroxy-4-oxo-4H-chromen-3-yl docosa-4,7,10,13,16,19-hexaenoate]
- CC50 at 24 h [5]: < 160 µM
- cell survival gain, maximum protection ([1]; 60 μM lipophenol): +21%

Molecule: CCCCC/C=C\C/C=C\CCCCCCCC(=O)Oc1c(-c2ccc(O)c(O)c2)oc2cc(O)cc(OC(C)C)c2c1=O [Q-3LA-5OiP, (9Z,12Z)-7-hydroxy-2-(3,4-dihydroxyphenyl)-5-isopropoxy-4-oxo-4H-chromen-3-yl octadeca-9,12-dienoate]
- CC50 at 24 h [5]: < 80 µM
- cell survival gain (anti-carbonyl stress activity) ([1]; 40 μM lipophenol): +34%
- cell survival gain (anti-carbonyl stress activity) ([1]; 80 μM lipophenol): +49%

Molecule: CCCCC/C=C\C/C=C\CCCCCCCC(=O)Oc1c(-c2ccc(O)c(O)c2)oc2cc(O)cc(O)c2c1=O [Q-3LA, (9Z,12Z)-2-(3,4-dihydroxyphenyl)-5,7-dihydroxy-4-oxo-4H-chromen-3-yl octadeca-9,12-dienoate]
- cell survival ([4]; 80 μM lipophenol): 156%
- cell survival ([4]; 160 μM lipophenol): 124%
- cell survival gain, maximum protection ([1]; 20 μM lipophenol): +9%
- cell survival gain against photoactivated A2E ([3]; from 60 μM lipophenol): +48%

Molecule: Oc1cc(O)cc(O)c1 [phloroglucinol, reference compound]
- cell survival ([4]; 160 μM lipophenol): 61%
- anti-carbonyl stress activity (in words) [1]: no survival gain
- gain of % of ROS production compared to non-stressed cells ([2]; 80 μM lipophenol): +50%
- protection against photoactivated A2E (in words) ([3]; up to 80 μM lipophenol): no cell protection

Molecule: CC/C=C\C/C=C\C/C=C\C/C=C\C/C=C\C/C=C\CCC(=O)Oc1c(-c2ccc(O)c(O)c2)oc2cc(OC(C)C)cc(O)c2c1=O [Q-3DHA-7OiP, (4Z,7Z,10Z,13Z,16Z,19Z)-5-hydroxy-2-(3,4-dihydroxyphenyl)-7-isopropoxy-4-oxo-4H-chromen-3-yl docosa-4,7,10,13,16,19-hexaenoate]
- toxicity (in words) [4]: no toxicity
- cell survival gain (anti-carbonyl stress activity) ([1]; 80 μM lipophenol): +29%
- cell survival gain against photoactivated A2E ([3]; as early as 20 μM lipophenol (plateau)): +62%

Molecule: CCCCC/C=C\C/C=C\CCCCCCCC(=O)Oc1c(-c2ccc(O)c(O)c2)oc2cc(OC(C)C)cc(O)c2c1=O [Q-3LA-7OiP, (9Z,12Z)-5-hydroxy-2-(3,4-dihydroxyphenyl)-7-isopropoxy-4-oxo-4H-chromen-3-yl octadeca-9,12-dienoate]
- cell survival ([4]; 160 μM lipophenol): 153%
- cell survival gain (anti-carbonyl stress activity) ([1]; 80 μM lipophenol): +38%
- cell survival gain against photoactivated A2E ([3]; from 40 μM lipophenol (plateau)): +86%

From patent US12195437B2, “Lipophenolic flavonoid derivatives useful to reduce carbonyl and oxidative stresses (COS)” (Centre National de la Recherche Scientifique (CNRS), priority 2018, dated 2025)
